Consider 2 compounds from ChEMBL document CHEMBL3244272, “Folate antagonists. 15. 2,3-Diamino-6-(2-naphthylsulfonyl)quinazoline and related 2,4-diamino-6-[(phenyl and naphthyl)sulfinyl and sulfonyl]quinazolines, a potent new class of antimetabolites with phenomenal antimalarial activity” (J Med Chem, 1979).

For series [1], the system named is Plasmodium berghei. Nature of the series: Antimalarial activity against trophozoite-induced Plasmodium berghei infected in mouse assessed as change in mean survival time at 80 mg/kg, sc single dose after 72 hrs of infection. The series is classed as functional. The note with it: route subcutaneous.
For series [2], the system named is Plasmodium berghei. Kind of series: Antimalarial activity against trophozoite-induced Plasmodium berghei infected in mouse assessed as change in mean survival time at 40 mg/kg, sc single dose after 72 hrs of infection. Particulars: route subcutaneous. The class given is functional.
Series [3] has as its system Plasmodium berghei. Nature of the series: Antimalarial activity against trophozoite-induced Plasmodium berghei infected in mouse assessed as change in mean survival time at 20 mg/kg, sc single dose after 72 hrs of infection. The series is classed as functional. The note with it: route subcutaneous.
Series [4] deals with Plasmodium berghei. Kind of series: Antimalarial activity against trophozoite-induced Plasmodium berghei infected in mouse assessed as change in mean survival time at 10 mg/kg, sc single dose after 72 hrs of infection. Particulars: route subcutaneous. The series is classed as functional.
The test system of series [5] is Plasmodium gallinaceum. Nature of the series: Antimalarial activity against trophozoite-induced Plasmodium gallinaceum infected in chick assessed as mean survival time at 120 mg/kg, sc single dose (reference value: 3.6 days). Particulars: route subcutaneous. The class given is functional.
The test system of series [6] is Plasmodium gallinaceum. Nature of the series: Antimalarial activity against trophozoite-induced Plasmodium gallinaceum infected in chick assessed as mean survival time at 60 mg/kg, sc single dose (reference value: 3.6 days). The series is classed as functional. Particulars: route subcutaneous.
Series [7] relates to Plasmodium gallinaceum. Nature of the series: Antimalarial activity against trophozoite-induced Plasmodium gallinaceum infected in chick assessed as mean survival time at 30 mg/kg, sc single dose (reference value: 3.6 days). The series is classed as functional. The note with it: route subcutaneous.
The next series concerns Gallus gallus. Kind of series: Toxicity in trophozoite-induced Plasmodium gallinaceum infected in chick assessed as death at 30 mg/kg, sc single dose measured within 48 hrs. The series is classed as organism-based. More on the design: dose 30 mg/kg, route subcutaneous. Particulars: chicken, in vivo.
Series [8] relates to Plasmodium gallinaceum. Kind of series: Antimalarial activity against sporozoite-induced Plasmodium gallinaceum infected in chick assessed as change in cured at 60 mg/kg, sc single dose. The class given is functional. Particulars: route subcutaneous.
Series [9] concerns Plasmodium gallinaceum. Nature of the series: Antimalarial activity against sporozoite-induced Plasmodium gallinaceum infected in chick assessed as change in cured at 30 mg/kg, sc single dose. The series is classed as functional. Particulars: route subcutaneous.
Series [10] relates to Plasmodium gallinaceum. Kind of series: Antimalarial activity against sporozoite-induced Plasmodium gallinaceum infected in chick assessed as change in cured at 15 mg/kg, sc single dose. The class given is functional. Particulars: route subcutaneous.
Series [11] has as its system Plasmodium falciparum. Nature of the series: Antimalarial activity against chloroquine-resistant, pyrimethamine-sensitive Plasmodium falciparum Vietnam Oak Knoll in Aotus monkey assessed as dose required to >50% cures compound treated for 7 days. The class given is functional.
Series [12] in a line: Toxicity in chloroquine-sensitive, pyrimethamine-resistant Plasmodium falciparum Malayan Camp CH/Q infected in Aotus monkey compound treated for 7 days. The note with it: in vivo.
The test system of series [13] is Plasmodium falciparum. Kind of series: Antimalarial activity against Plasmodium falciparum Vietnam Oak Knoll in po once daily dosed Owl monkey assessed as curative dose compound treated for 7 days. The class given is functional.
A further series concerns Plasmodium vivax. Nature of the series: Antimalarial activity against Plasmodium vivax New Guinea Chesson in po once daily dosed Owl monkey assessed as curative dose compound treated for 7 days. The class given is functional.
Series [14] concerns Plasmodium berghei. Nature of the series: Antimalarial activity against trophozoite-induced Plasmodium berghei infected in mouse assessed as change in mean survival time at 5 mg/kg, sc single dose after 72 hrs of infection. Particulars: route subcutaneous. The series is classed as functional.
The test system of series [15] is Plasmodium berghei. Nature of the series: Antimalarial activity against trophozoite-induced Plasmodium berghei infected in mouse assessed as change in mean survival time at 2.5 mg/kg, sc single dose after 72 hrs of infection. The series is classed as functional. The note with it: route subcutaneous.
Series [16] relates to Plasmodium berghei. Nature of the series: Antimalarial activity against trophozoite-induced Plasmodium berghei infected in mouse assessed as change in mean survival time at 1.25 mg/kg, sc single dose after 72 hrs of infection. The series is classed as functional. The note with it: route subcutaneous.

Each structure is given as a SMILES string.

As for `CC1(C)N=C(N)N=C(N)N1c1ccc(Cl)cc1.Cl` [CHLORCYCLOGUANIL HYDROCHLORIDE], the MST in the series with Plasmodium berghei [1] turned out to be 21.6 days; in the series on Plasmodium berghei [2] it was 13.4 days; in the series on Plasmodium berghei [3], 7.9 days; in the series with Plasmodium berghei [4], 4.9 days; with Plasmodium gallinaceum [5], 22.7 days; with Plasmodium gallinaceum [6], 18.7 days. In addition, the MST is 15.3 days in the series on Plasmodium gallinaceum [7], 0.4 days in the series with Plasmodium gallinaceum [8], 2.3 days with Plasmodium gallinaceum [9] and 0 days with Plasmodium gallinaceum [10]. In addition, the Activity result in the series with Gallus gallus was “Toxic”.

Consider `CCc1nc(N)nc(N)c1-c1ccc(Cl)cc1` [PYRIMETHAMINE], for which the Activity with Plasmodium falciparum [11] was 0.6 mg/kg. In addition, the MTD at 168 h in series [12] is > 2.5 mg/kg. The CD90 with Plasmodium falciparum [13] was 0.15 mg/kg; in the series with Plasmodium vivax, 0.625 mg/kg. In addition, the MST in the series with Plasmodium berghei [3] amounted to 7.7 days; in the series on Plasmodium berghei [4], 6.1 days; in the series on Plasmodium berghei [14], 5.3 days; in the series with Plasmodium berghei [15], 4.7 days; in the series on Plasmodium berghei [16], 3.1 days.
